Reference: US20080312255A1 (ASTRAZENECA AB, priority 2007, published 2008)
Counter-ions that a name gives are not always drawn.

Molecular target: S. aureus GyrB ATPase (Staphylococcus aureus, UniProt P0A0K8)
Assay: S. aureus GyrB ATPase inhibition (ammonium molybdate/malachite green phosphate detection)
Assay type: biochemical
Settings: compound concentration of 1 μM
Protocol: S. aureus GyrB ATPase Inhibition Activity: Compounds may be tested for inhibition of S. aureus GyrB ATPase activity using an ammonium molybdate/malachite green-based phosphate detection assay (Lanzetta, P. A., L. J. Alvarez, P. S. Reinach, and O. A. Candia, 1979, 100: 95-97). Assays can be performed in multiwell plates in 30 μl reactions containing: 50 mM Hepes buffer pH 7.5, 75 mM ammonium acetate, 8.0 mM magnesium chloride, 0.5 mM ethylenediaminetetraacetic acid, 5% glycerol, 1.0 mM 1,4-Dithio-DL-threitol, 200 nM bovine serum albumin, 1.0 μg/ml sheared salmon sperm DNA, 250 pM E. coli GyrA, 250 pM S. aureus GyrB, 250 μM ATP, and compound in dimethylsulfoxide. Reactions can be quenched with […] of ammonium molybdate/malachite green detection reagent containing 1.2 mM malachite green hydrochloride, 8.5 mM ammonium molybdate tetrahydrate, and 1 M hydrochloric acid. Plates can be read in an absorbance plate reader at 650 nm and percent inhibition values can be calculated using dimethylsulfoxide (2%)-containing reactions as 0% inhibition and EDTA-containing ([…]) reactions as 100% inhibition controls. An IC50 measurement of compound potency for each compound can be determined from reactions performed in the presence of 10 different compound concentrations.
Compounds of the invention were tested in an assay substantially similar to the assay described above for measuring the inhibition of S. aureus GyrB ATPase. Percent inhibition of S. aureus GyrB ATPase at a compound concentration of 1 μM (unless otherwise noted) is disclosed in the following table: […]

Sequence of S. aureus GyrB ATPase (P0AES4 whole entry): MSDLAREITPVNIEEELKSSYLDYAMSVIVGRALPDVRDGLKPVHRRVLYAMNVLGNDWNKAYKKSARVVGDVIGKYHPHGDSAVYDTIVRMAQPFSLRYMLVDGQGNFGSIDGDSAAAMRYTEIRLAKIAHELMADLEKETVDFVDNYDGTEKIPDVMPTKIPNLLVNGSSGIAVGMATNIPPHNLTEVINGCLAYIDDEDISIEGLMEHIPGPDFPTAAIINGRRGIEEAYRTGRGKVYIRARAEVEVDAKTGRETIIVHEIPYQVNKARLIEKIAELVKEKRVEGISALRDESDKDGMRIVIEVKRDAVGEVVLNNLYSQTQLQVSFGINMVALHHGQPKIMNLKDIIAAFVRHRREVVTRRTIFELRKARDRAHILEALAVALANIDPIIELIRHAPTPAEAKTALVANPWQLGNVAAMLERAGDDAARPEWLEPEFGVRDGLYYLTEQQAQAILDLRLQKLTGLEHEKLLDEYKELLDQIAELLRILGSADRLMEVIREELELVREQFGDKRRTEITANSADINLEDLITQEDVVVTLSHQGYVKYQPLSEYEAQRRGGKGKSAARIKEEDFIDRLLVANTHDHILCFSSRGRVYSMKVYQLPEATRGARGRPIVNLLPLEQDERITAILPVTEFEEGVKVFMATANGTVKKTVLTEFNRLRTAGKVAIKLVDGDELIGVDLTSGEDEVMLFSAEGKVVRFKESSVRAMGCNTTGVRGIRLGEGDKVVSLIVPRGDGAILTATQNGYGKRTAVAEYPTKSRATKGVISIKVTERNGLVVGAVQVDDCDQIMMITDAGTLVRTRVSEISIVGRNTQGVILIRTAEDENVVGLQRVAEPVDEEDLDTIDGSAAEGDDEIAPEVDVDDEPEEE
Sequence of S. aureus GyrB ATPase (P0A0K8 whole entry): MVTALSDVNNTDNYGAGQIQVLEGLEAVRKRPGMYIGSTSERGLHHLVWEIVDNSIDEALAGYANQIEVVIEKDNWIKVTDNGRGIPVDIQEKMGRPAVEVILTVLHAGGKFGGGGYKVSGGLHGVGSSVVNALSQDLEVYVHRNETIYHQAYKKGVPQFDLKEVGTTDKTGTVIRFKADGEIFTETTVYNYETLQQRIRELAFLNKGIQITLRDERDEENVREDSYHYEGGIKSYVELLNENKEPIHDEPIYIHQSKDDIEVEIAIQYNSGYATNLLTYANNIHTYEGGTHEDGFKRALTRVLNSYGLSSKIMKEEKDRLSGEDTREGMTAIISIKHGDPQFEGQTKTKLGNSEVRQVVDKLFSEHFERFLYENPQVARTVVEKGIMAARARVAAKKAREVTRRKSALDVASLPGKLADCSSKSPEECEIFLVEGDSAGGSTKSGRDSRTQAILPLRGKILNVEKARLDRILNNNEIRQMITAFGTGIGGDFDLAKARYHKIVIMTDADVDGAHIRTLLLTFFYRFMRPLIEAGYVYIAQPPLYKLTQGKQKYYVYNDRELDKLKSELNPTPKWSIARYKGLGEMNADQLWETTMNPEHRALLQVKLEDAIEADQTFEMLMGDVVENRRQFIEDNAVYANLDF

Row | Structure (SMILES) | inhibition at 1 µM [%]
1 | Cc1[nH]c(C(=O)N[C@@H]2CCN(c3nc(-c4nc5ccccc5s4)c(C(=O)O)s3)C[C@@H]2F)c(Cl)c1Cl [Example 15, 4-(1,3-Benzothiazol-2-yl)-2-((3S,4R)-4-{[(3,4-dichloro-5-methyl-1H-pyrrol-2-yl)carbonyl]amino}-3-fluoropiperidin-1-yl)-1,3-thiazole-5-carboxylic acid] | 101
2 | CO[C@H]1CN(c2nc(-c3n(C)cc[n+]3C)c(C(=O)O)s2)CC[C@H]1NC(=O)c1[nH]c(C)c(Cl)c1Cl [Example 22, 2-[5-Carboxy-2-((3S,4R)-4-{[(3,4-dichloro-5-methyl-1H-pyrrol-2-yl)carbonyl]amino}-3-methoxypiperidin-1-yl)-1,3-thiazol-4-yl]-1,3-dimethyl-1H-imidazol-3-ium trifluoroacetate] | 101
3 | COCCn1ccnc1-c1nc(N2CC[C@@H](NC(=O)c3[nH]c(C)c(Cl)c3C#N)[C@@H](OCc3ccccc3)C2)sc1C(=O)O [Example 153] | 98.6
4 | CO[C@H]1CN(c2nc(-c3nccn3C)c(C(=O)O)s2)CC[C@H]1NC(=O)c1[nH]c(C)c(Cl)c1Cl [Example 21, 2-((3S,4R)-4-{[(3,4-Dichloro-5-methyl-1H-pyrrol-2-yl)carbonyl]amino}-3-methoxypiperidin-1-yl)-4-(1-methyl-1H-imidazol-2-yl)-1,3-thiazole-5-carboxylic acid] | 99.1
5 | COC(=O)c1sc(N2CC[C@@H](NC(=O)c3[nH]c(C)c(Cl)c3Cl)[C@@H](OC)C2)nc1-c1ccn[nH]1 [Example 62] | 99.9
6 | COC(=O)c1sc(N2CC[C@@H](NC(=O)c3[nH]c(C)c(Cl)c3Cl)[C@@H](F)C2)nc1-c1cccc(OC)n1 [Example 100, methyl 2-((3S,4R)-4-(3,4-dichloro-5-methyl-1H-pyrrole-2-carboxamido)-3-fluoropiperidin-1-yl)-4-(6-methoxypyridin-2-yl)thiazole-5-carboxylate] | 112
7 | CO[C@H]1CN(c2nc(-c3nccs3)c(C(=O)O)s2)CC[C@H]1NC(=O)c1[nH]c(C)c(Cl)c1Cl [Example 3, 2′-((3S,4R)-4-{[(3,4-Dichloro-5-methyl-1H-pyrrol-2-yl)carbonyl]amino}-3-methoxypiperidin-1-yl)-2,4′-bi-1,3-thiazole-5′-carboxylic acid] | 98.6
8 | CCOC(=O)c1sc(N2CC[C@@H](NC(=O)c3[nH]c(C)c(Cl)c3C#N)[C@@H](OC)C2)nc1-c1ncccc1F [Example 106, ethyl 2-((3S,4R)-4-(4-chloro-3-cyano-5-methyl-1H-pyrrole-2-carboxamido)-3-methoxypiperidin-1-yl)-4-(3-fluoropyridin-2-yl)thiazole-5-carboxylate] | 101
9 | Cc1[nH]c(C(=O)N[C@@H]2CCN(c3nc(-c4ncnn4C)c(C(=O)O)s3)C[C@@H]2F)c(Cl)c1Cl [Example 28, 2-((3S,4R)-4-{[(3,4-Dichloro-5-methyl-1H-pyrrol-2-yl)carbonyl]amino}-3-fluoropiperidin-1-yl)-4-(1-methyl-1H-1,2,4-triazol-5-yl)-1,3-thiazole-5-carboxylic acid] | 87.1
10 | COCCn1ccnc1-c1nc(N2CC[C@@H](NC(=O)c3[nH]c(C)c(Cl)c3Cl)[C@@H](OCc3ccccc3)C2)sc1C(=O)O [Example 143, 2-[(3S,4R)-3-(benzyloxy)-4-{[(3,4-dichloro-5-methyl-1H-pyrrol-2-yl)carbonyl]amino}piperidin-1-yl]-4-[1-(2-methoxyethyl)-1H-imidazol-2-yl]-1,3-thiazole-5-carboxylic acid] | 98.8
11 | COC(=O)c1sc(N2CC[C@@H](NC(=O)c3[nH]c(C)c(Cl)c3Cl)[C@@H](OC)C2)nc1-c1cccc(OC)n1 [Example 94, methyl 2-((3S,4R)-4-(3,4-dichloro-5-methyl-1H-pyrrole-2-carboxamido)-3-methoxypiperidin-1-yl)-4-(6-methoxypyridin-2-yl)thiazole-5-carboxylate] | 106
12 | Cc1[nH]c(C(=O)N[C@@H]2CCN(c3nc(-c4ncccn4)c(C(=O)O)s3)C[C@@H]2F)c(Cl)c1Cl [Example 4, 2-((3S,4R)-4-{[(3,4-Dichloro-5-methyl-1H-pyrrol-2-yl)carbonyl]amino}-3-fluoropiperidin-1-yl)-4-pyrimidin-2-yl-1,3-thiazole-5-carboxylic acid] | 97.7
13 | CO[C@H]1CN(c2nc(-c3nnc(C)o3)c(C(=O)O)s2)CC[C@H]1NC(=O)c1[nH]c(C)c(Cl)c1Cl [Example 90, 2-((3S,4R)-4-{[(3,4-Dichloro-5-methyl-1H-pyrrol-2-yl)carbonyl]amino}-3-methoxypiperidin-1-yl)-4-(5-methyl-1,3,4-oxadiazol-2-yl)-1,3-thiazole-5-carboxylic acid] | 101
14 | Cc1[nH]c(C(=O)N[C@@H]2CCN(c3nc(-c4ncccc4F)c(C(=O)O)s3)C[C@@H]2F)c(Cl)c1Cl [Example 119, 2-((3S,4R)-4-(3,4-dichloro-5-methyl-1H-pyrrole-2-carboxamido)-3-fluoropiperidin-1-yl)-4-(3-fluoropyridin-2-yl)thiazole-5-carboxylic acid] | 79.4
15 | Cc1[nH]c(C(=O)N[C@@H]2CCN(c3nc(-c4cc(N(C)C)nc(N(C)C)n4)c(C(=O)O)s3)C[C@@H]2F)c(Cl)c1Cl [Example 10, 4-[2,6-Bis(dimethylamino)pyrimidin-4-yl]-2-((3S,4R)-4-{[(3,4-dichloro-5-methyl-1H-pyrrol-2-yl)carbonyl]amino}-3-fluoropiperidin-1-yl)-1,3-thiazole-5-carboxylic acid] | 101
16 | COc1cccc(-c2nc(N3CC[C@@H](NC(=O)c4[nH]c(C)c(Cl)c4Cl)[C@@H](F)C3)sc2C(=O)O)n1 [Example 117, 2-((3S,4R)-4-(3,4-dichloro-5-methyl-1H-pyrrole-2-carboxamido)-3-fluoropiperidin-1-yl)-4-(6-methoxypyridin-2-yl)thiazole-5-carboxylic acid] | 108
17 | COC(=O)c1sc(N2CC[C@@H](NC(=O)c3[nH]c(C)c(Cl)c3Cl)[C@@H](OC)C2)nc1-c1ncc[nH]1 [Example 86, Methyl 2-((3S,4R)-4-{[(3,4-dichloro-5-methyl-1H-pyrrol-2-yl)carbonyl]amino}-3-methoxypiperidin-1-yl)-4-(1H-imidazol-2-yl)-1,3-thiazole-5-carboxylate] | 99.9
18 | CO[C@H]1CN(c2nc(-c3ncccn3)c(C(=O)O)s2)CC[C@H]1NC(=O)c1[nH]c(C)c(Cl)c1C#N [Example 122, 2-((3S,4R)-4-(4-chloro-3-cyano-5-methyl-1H-pyrrole-2-carboxamido)-3-methoxypiperidin-1-yl)-4-(pyrimidin-2-yl)thiazole-5-carboxylic acid] | 103
19 | CO[C@H]1CN(c2nc(-c3cnc(C)cn3)c(C(=O)O)s2)CC[C@H]1NC(=O)c1[nH]c(C)c(Cl)c1Cl [Example 113, 2-((3S,4R)-4-(3,4-dichloro-5-methyl-1H-pyrrole-2-carboxamido)-3-methoxypiperidin-1-yl)-4-(5-methylpyrazin-2-yl)thiazole-5-carboxylic acid] | 92.9
20 | CCOC(=O)c1sc(N2CC[C@@H](NC(=O)c3[nH]c(C)c(Cl)c3Cl)[C@@H](F)C2)nc1-c1cnccn1 [Example 55] | 97.9
